Values belong to the compound of their own block, whether it stands above or below them.
Legend:
[1] = molecular target: T1, Aldehyde dehydrogenase 1A1 (Homo sapiens, UniProt P00352); experiment: Inhibition of ALDH1A1 (unknown origin)
T1 sequence (P00352 whole entry): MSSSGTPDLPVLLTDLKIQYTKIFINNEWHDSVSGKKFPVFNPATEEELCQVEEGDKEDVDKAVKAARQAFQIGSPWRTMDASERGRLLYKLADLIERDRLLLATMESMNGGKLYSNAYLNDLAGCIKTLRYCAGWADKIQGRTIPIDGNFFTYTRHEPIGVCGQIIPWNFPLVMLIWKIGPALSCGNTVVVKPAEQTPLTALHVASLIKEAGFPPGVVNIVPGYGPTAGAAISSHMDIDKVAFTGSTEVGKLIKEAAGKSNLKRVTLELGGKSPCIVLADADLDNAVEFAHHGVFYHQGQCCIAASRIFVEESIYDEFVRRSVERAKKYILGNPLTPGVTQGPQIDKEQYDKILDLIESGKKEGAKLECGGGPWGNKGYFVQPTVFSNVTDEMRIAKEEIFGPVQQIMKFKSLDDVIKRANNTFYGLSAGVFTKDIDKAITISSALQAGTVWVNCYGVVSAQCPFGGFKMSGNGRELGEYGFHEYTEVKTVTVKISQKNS

[2] = molecular target: T2, Aldehyde dehydrogenase 1A1 (Homo sapiens) (UniProt P00352); experiment: Inhibition of human ALDH1A1 assessed as fluorescent enhancement checked in presence of NAD+ by fluorescence based assay
T2 sequence (whole entry): T1 sequence (P00352 whole entry)

TOV21G = experiment: Anticancer activity against human TOV-21G-RT cells assessed as inhibition of cell growth; format: functional, cell-based
NCI/ADR-RES = experiment: cells; details: Homo sapiens
A549 = experiment: Anticancer activity against human A549 cells assessed as inhibition of cell growth by MTT assay; format: functional, cell-based
[3] = molecular target: T1, Aldehyde dehydrogenase 1A1; experiment: Inhibition of human ALDH1A1 using propionaldehyde as substrate in presence of NAD+ by UV-visible spectrophometric analysis
[4] = molecular target: T3, Retinaldehyde dehydrogenase 3 (Homo sapiens, UniProt P47895); experiment: Inhibition of human ALDH1A3 expressed in Escherichia coli BL21(DE3) pLys cell in presence of NAD+ by fluorescence based assay
T3 sequence (P47895 whole entry): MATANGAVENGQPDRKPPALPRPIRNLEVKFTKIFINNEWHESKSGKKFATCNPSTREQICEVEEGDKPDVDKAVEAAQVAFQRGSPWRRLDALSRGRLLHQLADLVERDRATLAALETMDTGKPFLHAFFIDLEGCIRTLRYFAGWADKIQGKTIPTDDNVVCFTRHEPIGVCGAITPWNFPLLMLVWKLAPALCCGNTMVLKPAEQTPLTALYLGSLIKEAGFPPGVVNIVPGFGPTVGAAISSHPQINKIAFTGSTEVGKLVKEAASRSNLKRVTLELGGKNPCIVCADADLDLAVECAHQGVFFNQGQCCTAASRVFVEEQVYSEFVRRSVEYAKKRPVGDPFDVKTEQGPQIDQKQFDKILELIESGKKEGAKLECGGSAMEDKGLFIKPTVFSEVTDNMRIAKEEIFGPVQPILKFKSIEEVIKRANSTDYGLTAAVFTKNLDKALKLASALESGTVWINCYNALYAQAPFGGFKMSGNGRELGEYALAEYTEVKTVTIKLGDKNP

[5] = molecular target: T1, Aldehyde dehydrogenase 1A1; experiment: Inhibition of human ALDH1A1 expressed in Escherichia coli BL21(DE3) pLys cell in presence of NAD+ by fluorescence based assay

Structure (SMILES): CCC(SC1=Nc2ccccc2C2=NC(CC(C)C)C(=O)N12)C(=O)Nc1ccccc1 (centres undefined)
IC50 [1]: 570 nM

Structure (SMILES): Cc1cc(C=O)ccc1-c1c2cc(F)c(=O)cc-2oc2cc(O)c(F)cc12
Activity [2]: 20

Structure (SMILES): CC(=O)O[C@H]1C(=O)[C@@]2(C)[C@H]([C@H](OC(=O)c3ccccc3)[C@]3(O)C[C@H](OC(=O)[C@H](O)[C@@H](NC(=O)c4ccccc4)c4ccccc4)C(C)=C1C3(C)C)[C@]1(OC(C)=O)CO[C@@H]1C[C@@H]2O [PACLITAXEL]
IC50 (TOV21G): 264 nM
IC50 (NCI/ADR-RES): 181 nM

Structure (SMILES): COc1cccc2c1C(=O)c1c(O)c3c(c(O)c1C2=O)C[C@@](O)(C(=O)CO)C[C@@H]3O[C@H]1C[C@H](N)[C@H](O)[C@H](C)O1 [DOXORUBICIN]
IC50 (TOV21G): 373 nM
IC50 (NCI/ADR-RES): 206 nM

Structure (SMILES): CC(C)CCn1c(CN2CCN(C(N)=O)CC2)nc2c1c(=O)n(C)c(=O)n2C
IC50 [3]: 210 nM

Structure (SMILES): CCC(SC1=Nc2ccccc2C2=NC(CC(C)C)C(=O)N12)C(=O)N1CCc2ccccc21 (centres undefined)
IC50 [1]: 1180 nM

Structure (SMILES): CCC(SC1=Nc2ccccc2C2=NC(C(C)C)C(=O)N12)C(=O)N1CCc2ccccc21 (centres undefined)
IC50 [1]: 840 nM

Next, values leading:

IC50 (A549): 28 nM
Structure (SMILES): CCCCCC(=O)N1C[C@@H](CCl)c2c1ccc1ccccc21

IC50 [1]: 440 nM
Structure (SMILES): CCC(SC1=Nc2ccccc2C2=NC(C(C)C)C(=O)N12)C(=O)Nc1ccccc1 (centres undefined)

IC50 [1]: 390 nM
Structure (SMILES): CCC(SC1=Nc2ccccc2C2=NC(C(C)CC)C(=O)N12)C(=O)N1CCc2ccccc21 (centres undefined)

IC50 [4]: 23000 nM
IC50 [5]: 5400 nM
Structure (SMILES): O=C(O)CN1C(=O)S/C(=C/c2ccc(OCc3nc4ccccc4c(=O)n3-c3ccccc3)cc2)C1=O

Source: ChEMBL document CHEMBL5149964, “Discovery and development of selective aldehyde dehydrogenase 1A1 (ALDH1A1) inhibitors” (Eur J Med Chem, 2021)
